Columns and labels:
Assay in all cases: Twenty-four hour optical density growth in BHI
Type in all cases: cell-based
Actinomyces viscosus = settings: A viscosus
Method: (§1) The extent of growth of the tested bacteria in response to selected saccharides (myo-inositol, D-lactitol, D-turanose and N-acetyl-D-mannosamine) was investigated by setting up growth curves in a nutritionally rich medium (brain heart infusion broth (BHI), Oxoid), over 24 hours. Late exponential growth phase liquid cultures were prepared by transferring the respective bacterium from blood agar plates to BHI and overnight incubation at 37° C. in an anaerobic atmosphere for A. viscosus, V. parvula, F. nucleatum, P. gingivalis, P. intermedia, T. forsythia, A. naeslundii, and C. sputigena, and in a 5% CO2 environment for S. salivarius, S. sanguinis, S. mitis, A. actinomycetemcomitans, S. mutans, S. sobrinus and S. gordonii. Overnight cultures were transferred to BHI and adjusted to a concentration of 1×10^7 CFU/ml (colony forming units per ml) by measuring the optical density at 600 nm (OD600) (BioRad SmartSpec 3000). For each strain, 200 μl of the bacterial suspension was added to a 96-well plate containing 20 μl of the respective saccharides. Final concentrations of the saccharides were set to 5, 10, 20 and 25 μmol/ml. […] Plates were incubated as previously described.
(§2) For each combination of bacterium/saccharide, and for each of their respective controls (i.e. the particular bacterium in the nutritionally rich medium with no saccharide), the optical density was measured at 630 nm (OD630) at 0 h and 24 h (Thermo Scientific Multiskan Ascent). Additionally, the OD630 for combinations of bacterium/saccharides grown in a 5% CO2 environment were also measured every hour between 0 h and 9 h.
(§3) The experiment was carried out on three different days (thus providing 3 biological replicas) and on each day the experiment was carried out in quadruple (thus providing 4 technical replicas) for each combination of bacterium with saccharide and for each control. For each day and for each combination, the average (mean) of the values obtained (as detailed above) for the four technical replicas was calculated to provide a single value for each combination on each day. The values shown in Tables 5a,b to 6a,b, below, are the average (mean) of the three single values obtained for each combination of bacterium with saccharide.

Prevotella intermedia = settings: P intermedia
Method: as §1, §2, §3

Porphyromonas gingivalis = settings: P gingivalis
Method: as §1, §2, §3

Capnocytophaga sputigena = settings: C sputigena
Method: as §1, §2, §3

Streptococcus mitis = settings: S mitis
Method: as §1, §2, §3

Actinomyces naeslundii = settings: A naeslundii
Method: as §1, §2, §3

Veillonella parvula = settings: V parvula
Method: as §1, §2, §3

Streptococcus salivarius = settings: S salivarius
Method: as §1, §2, §3

[1] = tested on: Aggregatibacter actinomycetemcomitans; settings: A actinomycetemcomitans
Method: as §1, §2, §3

Streptococcus gordonii = settings: S gordonii
Method: as §1, §2, §3

Streptococcus sobrinus = settings: S sobrinus
Method: as §1, §2, §3

Streptococcus mutans = settings: for extent of growth: maximal OD630 over 24 hr divided by maximal OD of control (control = 1): S mutans
Method: as §1, §2, §3

Tannerella forsythia = settings: T forsythia
Method: as §1, §2, §3

Question: What does the source list for `OC[C@@H](O)[C@@H](O[C@H]1O[C@H](CO)[C@H](O)[C@H](O)[C@H]1O)[C@H](O)[C@@H](O)CO` [D-Lactitol, 4-O-α-D-galactopyranosyl-D-glucitol]?
Answer: extent of growth: maximal OD630 over 24 hr divided by maximal OD of control (control = 1) (Actinomyces viscosus; 5 μmol/ml): 0.8614; extent of growth: maximal OD630 over 24 hr divided by maximal OD of control (control = 1) (Actinomyces viscosus; 10 μmol/ml): 0.9554; extent of growth: maximal OD630 over 24 hr divided by maximal OD of control (control = 1) (Actinomyces viscosus; 20 μmol/ml): 1.0275; extent of growth: maximal OD630 over 24 hr divided by maximal OD of control (control = 1) (Actinomyces viscosus; 25 μmol/ml): 1.0300; extent of growth: maximal OD630 over 24 hr divided by maximal OD of control (control = 1) (Prevotella intermedia; 5 μmol/ml): 0.9178; extent of growth: maximal OD630 over 24 hr divided by maximal OD of control (control = 1) (Prevotella intermedia; 10 μmol/ml): 0.9210; extent of growth: maximal OD630 over 24 hr divided by maximal OD of control (control = 1) (Prevotella intermedia; 20 μmol/ml): 0.9185; extent of growth: maximal OD630 over 24 hr divided by maximal OD of control (control = 1) (Prevotella intermedia; 25 μmol/ml): 0.9036; extent of growth: maximal OD630 over 24 hr divided by maximal OD of control (control = 1) (Porphyromonas gingivalis; 5 μmol/ml): 0.9615; extent of growth: maximal OD630 over 24 hr divided by maximal OD of control (control = 1) (Porphyromonas gingivalis; 10 μmol/ml): 0.9989; extent of growth: maximal OD630 over 24 hr divided by maximal OD of control (control = 1) (Porphyromonas gingivalis; 20 μmol/ml): 0.9706; extent of growth: maximal OD630 over 24 hr divided by maximal OD of control (control = 1) (Porphyromonas gingivalis; 25 μmol/ml): 1.0115; extent of growth: maximal OD630 over 24 hr divided by maximal OD of control (control = 1) (Capnocytophaga sputigena; 5 μmol/ml): 0.8996; extent of growth: maximal OD630 over 24 hr divided by maximal OD of control (control = 1) (Capnocytophaga sputigena; 10 μmol/ml): 0.8742; extent of growth: maximal OD630 over 24 hr divided by maximal OD of control (control = 1) (Capnocytophaga sputigena; 20 μmol/ml): 0.8416; extent of growth: maximal OD630 over 24 hr divided by maximal OD of control (control = 1) (Capnocytophaga sputigena; 25 μmol/ml): 0.8337; extent of growth: maximal OD630 over 24 hr divided by maximal OD of control (control = 1) (Streptococcus mitis; 5 μmol/ml): 0.8694; extent of growth: maximal OD630 over 24 hr divided by maximal OD of control (control = 1) (Streptococcus mitis; 10 μmol/ml): 0.9020; extent of growth: maximal OD630 over 24 hr divided by maximal OD of control (control = 1) (Streptococcus mitis; 20 μmol/ml): 0.9151; extent of growth: maximal OD630 over 24 hr divided by maximal OD of control (control = 1) (Streptococcus mitis; 25 μmol/ml): 0.8839; extent of growth: maximal OD630 over 24 hr divided by maximal OD of control (control = 1) (Actinomyces naeslundii; 5 μmol/ml): 1.0156; extent of growth: maximal OD630 over 24 hr divided by maximal OD of control (control = 1) (Actinomyces naeslundii; 10 μmol/ml): 1.0334; extent of growth: maximal OD630 over 24 hr divided by maximal OD of control (control = 1) (Actinomyces naeslundii; 20 μmol/ml): 1.0688; extent of growth: maximal OD630 over 24 hr divided by maximal OD of control (control = 1) (Actinomyces naeslundii; 25 μmol/ml): 1.0686; extent of growth: maximal OD630 over 24 hr divided by maximal OD of control (control = 1) (Veillonella parvula; 5 μmol/ml): 0.8722; extent of growth: maximal OD630 over 24 hr divided by maximal OD of control (control = 1) (Veillonella parvula; 10 μmol/ml): 0.8854; extent of growth: maximal OD630 over 24 hr divided by maximal OD of control (control = 1) (Veillonella parvula; 20 μmol/ml): 0.8909; extent of growth: maximal OD630 over 24 hr divided by maximal OD of control (control = 1) (Veillonella parvula; 25 μmol/ml): 0.9054; extent of growth: maximal OD630 over 24 hr divided by maximal OD of control (control = 1) (Streptococcus salivarius; 5 μmol/ml): 1.1349; extent of growth: maximal OD630 over 24 hr divided by maximal OD of control (control = 1) (Streptococcus salivarius; 10 μmol/ml): 1.3489; extent of growth: maximal OD630 over 24 hr divided by maximal OD of control (control = 1) (Streptococcus salivarius; 20 μmol/ml): 1.3431; extent of growth: maximal OD630 over 24 hr divided by maximal OD of control (control = 1) (Streptococcus salivarius; 25 μmol/ml): 1.3159; extent of growth: maximal OD630 over 24 hr divided by maximal OD of control (control = 1) ([1]; 5 μmol/ml): 0.7044; extent of growth: maximal OD630 over 24 hr divided by maximal OD of control (control = 1) ([1]; 10 μmol/ml): 0.7052; extent of growth: maximal OD630 over 24 hr divided by maximal OD of control (control = 1) ([1]; 20 μmol/ml): 0.6952; extent of growth: maximal OD630 over 24 hr divided by maximal OD of control (control = 1) ([1]; 25 μmol/ml): 0.7095; extent of growth: maximal OD630 over 24 hr divided by maximal OD of control (control = 1) (Streptococcus gordonii; 5 μmol/ml): 0.9828; extent of growth: maximal OD630 over 24 hr divided by maximal OD of control (control = 1) (Streptococcus gordonii; 10 μmol/ml): 0.9945; extent of growth: maximal OD630 over 24 hr divided by maximal OD of control (control = 1) (Streptococcus gordonii; 20 μmol/ml): 0.9931; extent of growth: maximal OD630 over 24 hr divided by maximal OD of control (control = 1) (Streptococcus gordonii; 25 μmol/ml): 1.0101; extent of growth: maximal OD630 over 24 hr divided by maximal OD of control (control = 1) (Streptococcus sobrinus; 5 μmol/ml): 1.0650; extent of growth: maximal OD630 over 24 hr divided by maximal OD of control (control = 1) (Streptococcus sobrinus; 10 μmol/ml): 1.0189; extent of growth: maximal OD630 over 24 hr divided by maximal OD of control (control = 1) (Streptococcus sobrinus; 20 μmol/ml): 1.0335; extent of growth: maximal OD630 over 24 hr divided by maximal OD of control (control = 1) (Streptococcus sobrinus; 25 μmol/ml): 1.0163; stimulation of growth of S. mutans (Streptococcus mutans; Example 2): does not stimulate growth; extent of growth: maximal OD630 over 24 hr divided by maximal OD of control (control = 1) (Streptococcus mutans; 5 μmol/ml): 0.9466; extent of growth: maximal OD630 over 24 hr divided by maximal OD of control (control = 1) (Streptococcus mutans; 10 μmol/ml): 0.9230; extent of growth: maximal OD630 over 24 hr divided by maximal OD of control (control = 1) (Streptococcus mutans; 20 μmol/ml): 0.9036; extent of growth: maximal OD630 over 24 hr divided by maximal OD of control (control = 1) (Streptococcus mutans; 25 μmol/ml): 0.9149; extent of growth: maximal OD630 over 24 hr divided by maximal OD of control (control = 1) (Tannerella forsythia; 5 μmol/ml): 0.9351; extent of growth: maximal OD630 over 24 hr divided by maximal OD of control (control = 1) (Tannerella forsythia; 10 μmol/ml): 0.9434; extent of growth: maximal OD630 over 24 hr divided by maximal OD of control (control = 1) (Tannerella forsythia; 20 μmol/ml): 0.9426; extent of growth: maximal OD630 over 24 hr divided by maximal OD of control (control = 1) (Tannerella forsythia; 25 μmol/ml): 0.9367

— patent US11419806B2, “Prebiotic oral care methods using a saccharide” (Colgate-Palmolive Company, priority 2013, dated 2022)
